Source: article PMC7497086, “Fluorophore‐Labeled Cyclic Nucleotides as Potent Agonists of Cyclic Nucleotide‐Regulated Ion Channels” (Chembiochem, 2020)
“And” between values parts separate entries of the source, which are not always exact repeats. Identical values can stand only once. “Also recorded” adds a separate entry of the source.

What was measured:
Assay type in all cases: biochemical
[1] = target: T1, Heterotetrameric CNGA2:A4:B1b channels (Rattus norvegicus, UniProt A0A8I5ZN27+Q00195+Q64359); experiment: Patch-clamp activation of heterotetrameric olfactory CNGA2:A4:B1b channels, inside-out patches of Xenopus oocytes; conditions: for H a (Hill coefficient of activation) / EC50: inside-out patches, +10 mV; for EC50: concentration of half maximum activation
T1 construct: expressed in transfected cells; host or cells: Xenopus laevis oocytes injected with cRNA (CNGA2:CNGA4:CNGB1b at 2:1:1)
Protocol: First, the effect of the compounds on olfactory CNG channels with natural composition was tested. […] To determine the potency of the ligands, full concentration‐activation relationships were generated. These relationships were fitted with Equation 1 (Experimental Section), yielding the concentration of half maximum activation (EC 50) and the Hill coefficient (H a).
(§1) Molecular biology and heterologous expression of CNG and HCN channels: The subunits CNGA2 (accession No. AF126808), CNGA4 (accession no. U12623) and CNGB1b (accession no. AF068572) of rat olfactory channels as well as mouse HCN2 channels (NM008226) were subcloned in front of the T7 promoter of pGEMHEnew. The corresponding cRNAs were produced with the mMESSAGE mMACHINE T7 Kit (Ambion, Austin, TX, USA).
(§2) Oocytes at stages IV and V were injected with 50–130 ng cRNA encoding either CNGA2, CNGA2 : CNGA4 : CNGB1b (2 : 1 : 1 ratio) or HCN2 channels either manually or mediated by an injection robot (RoboInject®). The injected oocytes were incubated at 18 °C for up to 6 days in Barth's medium containing (in mM) 84 NaCl, 1 KCl, 2.4 NaHCO3, 0.82 MgSO4, 0.41 CaCl2, 0.33 Ca(NO3)2, 7.5 TRIS, cefuroxime (4.0 μg/mL) and penicillin/streptomycin (100 μg/mL), pH 7.4.
(§3) Electrophysiology: Macroscopic currents were recorded in inside‐out patches of the oocytes expressing hundreds to several thousand of the desired channels by using the patch‐clamp technique. The patch pipettes were pulled from quartz tubing (P‐2000, Sutter Instrument, Novato, USA) with an outer and inner diameter of 1.0 and 0.7 mm (VITROCOM, New Jersey, USA). The corresponding pipette resistance was 0.9–2.3 MΩ. The bath and pipette solution contained (in mM): 150 KCl, 1 EGTA, 20 HEPES (pH 7.4) for CNG channel measurements. For HCN channel measurements the bath solution contained (in mM): 100 KCl, 10 EGTA, 10 HEPES (pH 7.2) and the pipette (in mM) 120 KCl, 10 HEPES, 1 CaCl2 (pH 7.2). All experiments were performed at room temperature by using an Axopatch 200B amplifier (Axon Instruments, Foster City, CA, USA). Electrophysiology was controlled by the Patchmaster‐software (HEKA Elektronik Dr. Schulze GmbH, Lambrecht, Germany). The sampling rate was 5 kHz and the filter implemented in the amplifier (4‐pole Bessel) was set to 2 kHz. Measurements in HCN2 channels were started 3.5 minutes after patch excision, to minimize run down phenomena.18 The solutions with the different ligand concentrations to be studied were applied by a multi‐barrel device to the patches with a flow rate of 0.8 to 1.2 mL/min. The concentration of the fluorescent ligands was verified by UV/Vis spectroscopy.
(§4) where I is the actual current amplitude and I max the maximum current amplitude at saturating concentration of each cyclic nucleotide. EC 50 is the ligand concentration generating half maximum current and H a the respective Hill coefficient.

[2] = target: T2, Homotetrameric CNGA2 channels (Rattus norvegicus, UniProt Q00195); experiment: Patch-clamp activation of homotetrameric CNGA2 channels, inside-out patches of Xenopus oocytes; conditions: for H a (Hill coefficient of activation) / EC50: inside-out patches; for EC50: concentration of half maximum activation
T2 construct: expressed in transfected cells; host or cells: Xenopus laevis oocytes injected with CNGA2 cRNA
T2 sequence (Q00195 1-664): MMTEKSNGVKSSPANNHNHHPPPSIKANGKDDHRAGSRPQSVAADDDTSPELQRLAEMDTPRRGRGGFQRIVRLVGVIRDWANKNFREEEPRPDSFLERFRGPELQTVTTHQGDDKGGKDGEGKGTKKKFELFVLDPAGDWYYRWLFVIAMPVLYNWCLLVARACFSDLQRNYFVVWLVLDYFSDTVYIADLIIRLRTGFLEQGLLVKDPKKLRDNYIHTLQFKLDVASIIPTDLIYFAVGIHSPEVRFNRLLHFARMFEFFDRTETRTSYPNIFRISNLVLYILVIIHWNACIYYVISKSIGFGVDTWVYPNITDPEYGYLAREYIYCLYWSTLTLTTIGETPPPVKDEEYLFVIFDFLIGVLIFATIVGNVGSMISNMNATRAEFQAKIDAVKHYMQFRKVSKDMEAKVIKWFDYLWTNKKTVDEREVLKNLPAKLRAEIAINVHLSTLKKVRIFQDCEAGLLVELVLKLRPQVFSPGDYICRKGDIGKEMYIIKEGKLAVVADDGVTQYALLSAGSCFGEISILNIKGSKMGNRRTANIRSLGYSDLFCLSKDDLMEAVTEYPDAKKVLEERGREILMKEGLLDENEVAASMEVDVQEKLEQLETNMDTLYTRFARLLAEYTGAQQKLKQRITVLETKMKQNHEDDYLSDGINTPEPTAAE
From the text: Moreover, we studied the effect of the nucleotide derivatives on homotetrameric CNGA2 channels.
as §1, §2, §3, §4

[3] = target: T3, homotetrameric HCN2 channels (Mus musculus, UniProt O88703); experiment: Patch-clamp activation of homotetrameric HCN2 channels, inside-out patches of Xenopus oocytes; conditions: 5 μM ligand; pulse from -30 mV to -130 mV; compared with saturating cAMP (20 μM)
T3 construct: expressed in transfected cells; host or cells: Xenopus laevis oocytes injected with HCN2 cRNA
T3 sequence (O88703 1-863): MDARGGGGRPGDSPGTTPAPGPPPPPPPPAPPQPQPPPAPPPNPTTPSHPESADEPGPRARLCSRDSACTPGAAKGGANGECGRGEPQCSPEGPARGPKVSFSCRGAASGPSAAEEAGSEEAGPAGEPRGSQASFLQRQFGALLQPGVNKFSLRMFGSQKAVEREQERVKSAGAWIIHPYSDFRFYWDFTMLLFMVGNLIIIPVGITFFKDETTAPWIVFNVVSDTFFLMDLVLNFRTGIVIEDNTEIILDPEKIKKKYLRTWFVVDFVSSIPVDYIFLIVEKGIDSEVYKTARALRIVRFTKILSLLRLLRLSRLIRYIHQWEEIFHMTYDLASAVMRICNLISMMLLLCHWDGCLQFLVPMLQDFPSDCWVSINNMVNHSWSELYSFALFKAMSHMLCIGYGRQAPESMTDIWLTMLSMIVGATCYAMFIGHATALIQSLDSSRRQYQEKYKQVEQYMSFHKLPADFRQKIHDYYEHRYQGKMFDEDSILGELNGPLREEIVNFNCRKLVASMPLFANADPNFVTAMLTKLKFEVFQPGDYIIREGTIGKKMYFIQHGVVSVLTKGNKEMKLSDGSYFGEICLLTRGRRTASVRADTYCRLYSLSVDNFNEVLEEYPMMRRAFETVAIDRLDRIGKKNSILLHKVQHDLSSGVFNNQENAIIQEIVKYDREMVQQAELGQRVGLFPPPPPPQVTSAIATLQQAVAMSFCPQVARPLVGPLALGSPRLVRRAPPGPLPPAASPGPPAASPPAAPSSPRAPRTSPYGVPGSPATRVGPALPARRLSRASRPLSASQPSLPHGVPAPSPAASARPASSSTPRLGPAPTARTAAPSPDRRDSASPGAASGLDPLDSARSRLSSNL
Protocol: On these channels the potency of cGMP and its derivatives is negligibly small. These measurements were performed in inside‐out patches as well. The channels were activated from a holding potential of −30 mV by a hyperpolarizing voltage pulse to −130 mV, followed by a short pulse to −100 mV, as described in the inset of Figure 3A. All recordings were carried out in the absence of a ligand at first and then with a solution containing 5 μM of the cyclic nucleotide to be tested.
as §1
The oocytes were incubated for 105 min in Ca^2+‐free Barth's solution containing collagenase A (3 mg/mL; Roche, Grenzach‐Wyhlen, Germany) and (in mM) 82.5 NaCl, 2 KCl, 1 MgCl2, 5 HEPES, pH 7.4. […]
Electrophysiology: Macroscopic currents were recorded in inside‐out patches of the oocytes expressing hundreds to several thousand of the desired channels by using the patch‐clamp technique. […]

T1 sequence (Q64359 whole entry, one chain of several): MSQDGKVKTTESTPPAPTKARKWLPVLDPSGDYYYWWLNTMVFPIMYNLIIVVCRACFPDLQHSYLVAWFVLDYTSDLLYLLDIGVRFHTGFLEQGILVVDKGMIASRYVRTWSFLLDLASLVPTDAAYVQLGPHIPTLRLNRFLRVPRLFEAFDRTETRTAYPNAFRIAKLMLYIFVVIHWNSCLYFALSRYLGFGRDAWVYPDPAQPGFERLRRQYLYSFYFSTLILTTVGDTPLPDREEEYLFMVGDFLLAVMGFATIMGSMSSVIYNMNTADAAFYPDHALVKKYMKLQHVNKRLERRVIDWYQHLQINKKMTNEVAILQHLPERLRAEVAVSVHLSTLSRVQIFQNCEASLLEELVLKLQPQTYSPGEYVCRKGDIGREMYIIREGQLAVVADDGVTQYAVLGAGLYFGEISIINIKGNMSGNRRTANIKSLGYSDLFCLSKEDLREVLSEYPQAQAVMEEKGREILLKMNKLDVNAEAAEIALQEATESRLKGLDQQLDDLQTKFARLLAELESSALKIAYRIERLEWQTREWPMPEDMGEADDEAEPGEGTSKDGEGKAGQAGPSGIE
T1 sequence (A0A8I5ZN27 1-858 isoform A0A8I5ZN27-2, one chain of several): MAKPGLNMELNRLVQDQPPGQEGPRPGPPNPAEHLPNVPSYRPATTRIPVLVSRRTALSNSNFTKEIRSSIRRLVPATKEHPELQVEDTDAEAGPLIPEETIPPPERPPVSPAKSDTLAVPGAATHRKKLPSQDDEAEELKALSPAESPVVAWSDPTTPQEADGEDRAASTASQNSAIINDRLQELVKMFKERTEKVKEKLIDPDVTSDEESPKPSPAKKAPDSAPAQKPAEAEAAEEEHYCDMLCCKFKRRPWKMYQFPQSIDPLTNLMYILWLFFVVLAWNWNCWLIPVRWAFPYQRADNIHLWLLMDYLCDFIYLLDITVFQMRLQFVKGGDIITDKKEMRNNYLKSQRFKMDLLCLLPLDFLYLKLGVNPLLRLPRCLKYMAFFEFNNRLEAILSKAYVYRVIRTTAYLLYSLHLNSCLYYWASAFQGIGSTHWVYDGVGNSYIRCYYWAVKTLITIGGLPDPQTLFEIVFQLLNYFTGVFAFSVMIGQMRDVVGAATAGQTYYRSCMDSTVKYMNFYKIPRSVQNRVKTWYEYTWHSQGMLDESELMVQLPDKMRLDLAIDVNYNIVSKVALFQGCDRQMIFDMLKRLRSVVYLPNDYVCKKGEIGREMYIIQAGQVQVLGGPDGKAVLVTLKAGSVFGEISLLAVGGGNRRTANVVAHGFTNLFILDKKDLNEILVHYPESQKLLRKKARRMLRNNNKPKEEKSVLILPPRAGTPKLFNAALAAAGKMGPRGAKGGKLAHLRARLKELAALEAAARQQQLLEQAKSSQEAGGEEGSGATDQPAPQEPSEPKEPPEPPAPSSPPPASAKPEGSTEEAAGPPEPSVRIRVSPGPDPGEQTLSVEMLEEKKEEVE

H a (Hill coefficient of activation) [1] | EC50 [1] | H a (Hill coefficient of activation) [2] | EC50 [2] | EC 50 (in words) [2] | agonist efficacy ([1]; current maxima normalized to saturating cAMP (500 μM)) | effect at elevated concentrations ([1]; elevated concentrations) | SMILES | efficacy of channel activation ([2]; relative to maximum activation) | effect on HCN2 current (activation speed and current amplitude) [3]
2.26±0.29 | 0.9 ± 0.04 µM | 1.39 and 1.39±0.07 | 10 ± 0.5 µM | – | – | – | CC1(C)C2=C3C=C4C5=[N+](CCC4OC3CCN2c2ccc(CC(=O)NCCCCCc3ccc(Sc4nc6c(N)ncnc6n4[C@@H]4O[C@@H]6COP(=O)(O)O[C@H]6[C@H]4O)cc3)cc21)c1ccc(S(=O)(=O)[O-])cc1C5(C)C (stereo partly shown) [Compound 7] | did not generate maximum activation at 100 μM | –
2.11±0.23 | 1.36 ± 0.07 µM | 2.48±0.05 | 1.77 ± 0.02 µM | – | – | – | Nc1nc2c(ncn2[C@@H]2O[C@@H]3COP(=O)(O)O[C@H]3[C@H]2O)c(=O)[nH]1 [cGMP, reference compound] | – | –
1.74±0.11 | 7.02 ± 0.26 µM | 2.28±0.28 | 2.41 ± 0.15 µM | – | – | – | NCCCCCc1ccc(-c2nc3c(=O)[nH]c(N)nc3n2[C@@H]2O[C@@H]3COP(=O)(O)O[C@H]3[C@H]2O)cc1 [Compound 13] | – | –
1.55±0.08 | 0.37 ± 0.01 µM | 2.52±0.08 | 0.25 ± 0.01 µM | nanomolar range | – | – | NCCCCCc1ccc(Sc2nc3c(=O)[nH]c(N)nc3n2[C@@H]2O[C@@H]3COP(=O)(O)O[C@H]3[C@H]2O)cc1 [Compound 9] | – | –
2.23±0.05 | 10.7 ± 0.1 µM | 2.14±0.10 | 16.3 ± 0.5 µM | – | only a partial agonist | – | NCCCCCc1ccc(-c2nc3c(N)ncnc3n2[C@@H]2O[C@@H]3COP(=O)(O)O[C@H]3[C@H]2O)cc1 [Compound 12] | – | no effect; also recorded: almost ineffective
2.25±0.08 | 0.75 ± 0.01 µM | 2.51±0.05 | 4.72 ± 0.04 µM | – | – | inhibitory effect | NCCCCCc1ccc(Sc2nc3c(N)ncnc3n2[C@@H]2O[C@@H]3COP(=O)(O)O[C@H]3[C@H]2O)cc1 [Compound 6] | – | accelerated the current and enhanced the amplitude

SMILES | H a (Hill coefficient of activation) [1] | EC50 [1] | H a (Hill coefficient of activation) [2] | EC50 [2] | EC 50 (in words) [2] | agonist efficacy ([1]; current maxima normalized to saturating cAMP (500 μM)) | effect at elevated concentrations ([1]; elevated concentrations) | efficacy of channel activation ([2]; relative to maximum activation) | effect on HCN2 current (activation speed and current amplitude) [3]
Nc1ncnc2c1ncn2[C@@H]1O[C@@H]2COP(=O)(O)O[C@H]2[C@H]1O [cAMP, reference compound] | 2.08±0.12 | – | – | – | – | – | – | – | –
